Values quoted from earlier work in patent US5744316A, “Isolated, tyrosinase derived peptides and uses thereof” (Ludwig Institute for Cancer Research, priority 1996, dated 1998).
Where no end group is shown, it is not given here.

Tests used:
HLA-B44 = details: Burrows et al. 1990
HLA-B*4402 molecules = HLA-B*4402 molecules (Homo sapiens, UniProt P01889, A223V/A65T/A93T/A95T/D201E/D98Y/E176V/E187L/E204Q/E69K/G107R/H137Y/K202T/L105A/L119I/N104T/N87E/Q56L/Q94N/R106L/R155S/R180D/S101N/S121R/S35A/S48T/T118I/V36M/W191S/Y140D/Y91S); details: Coulie et al. 1995

| binding to HLA-B*4402 molecules (HLA-B*4402 molecules) | Sequence | binding by HLA-B44 (HLA-B44) |
| --- | --- | --- |
| – | EENLLDFVRF [SEQ ID NO: 9] | bound |
| binds | EEKLIVVLF [SEQ ID NO: 11] | – |
